Results published in PMC4168798 (ACS Chemical Biology, 2014).

How the values were obtained:
Mcl-1 [1] = biological target: T1, Mcl-1 (Homo sapiens, UniProt Q07820); test: direct fluorescence anisotropy binding
Bcl-2 [2] = biological target: Bcl-2 (Homo sapiens, UniProt P10415); test: direct fluorescence anisotropy binding
Bcl-xL [3] = biological target: Bcl-xL (Homo sapiens, UniProt Q07817); test: direct fluorescence anisotropy binding
Bfl-1 [4] = biological target: T2, Bfl-1 (Homo sapiens, UniProt Q16548); test: direct fluorescence anisotropy binding
T2 sequence (Q16548 1-151 limits assumed): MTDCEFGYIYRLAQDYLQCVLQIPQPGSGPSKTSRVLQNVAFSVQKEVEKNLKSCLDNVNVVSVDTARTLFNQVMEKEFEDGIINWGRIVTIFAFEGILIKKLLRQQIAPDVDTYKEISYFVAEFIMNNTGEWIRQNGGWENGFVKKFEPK

Bcl-w [5] = biological target: T3, Bcl-w (Homo sapiens, UniProt Q92843); test: direct fluorescence anisotropy binding
T3 sequence (Q92843 1-164 limits assumed): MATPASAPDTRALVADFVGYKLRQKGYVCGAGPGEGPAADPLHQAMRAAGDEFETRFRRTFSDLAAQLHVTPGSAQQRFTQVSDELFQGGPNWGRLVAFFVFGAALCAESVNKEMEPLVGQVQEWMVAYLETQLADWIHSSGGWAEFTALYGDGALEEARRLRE

KSBcl-2 = biological target: T4, KSBcl-2 (Human herpesvirus 8 type P, UniProt F5HGJ3); test: direct fluorescence anisotropy binding; set-up: species or system Kaposi sarcoma herpesvirus
T4 sequence (F5HGJ3 1-150): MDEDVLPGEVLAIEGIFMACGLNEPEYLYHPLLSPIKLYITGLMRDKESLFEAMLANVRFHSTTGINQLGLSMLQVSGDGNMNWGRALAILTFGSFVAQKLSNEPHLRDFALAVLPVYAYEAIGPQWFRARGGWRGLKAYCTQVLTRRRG

Mcl-1 [6] = biological target: T1, Mcl-1; test: competition fluorescence anisotropy vs fluoresceinated Bim; conditions: biochemical competition binding experiments; four other human Bcl-2 paralogs
Bcl-2 [7] = conditions: NoxaA BH3 peptide from murine Noxa; cited from earlier work
Bfl-1 [8] = conditions: NoxaA BH3 peptide from murine Noxa; cited from earlier work
Bcl-w [9] = conditions: NoxaA BH3 peptide from murine Noxa; cited from earlier work
Bcl-xL [10] = conditions: NoxaA BH3 peptide from murine Noxa; cited from earlier work

T1 sequence (Q07820 172-327 limits assumed): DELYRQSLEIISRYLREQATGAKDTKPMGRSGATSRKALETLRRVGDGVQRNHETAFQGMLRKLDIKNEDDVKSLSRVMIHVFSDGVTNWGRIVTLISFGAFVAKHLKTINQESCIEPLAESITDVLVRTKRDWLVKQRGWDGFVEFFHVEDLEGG
Sequence of Bcl-2 (Homo sapiens, UniProt P10415) (P10415 1-217 limits assumed): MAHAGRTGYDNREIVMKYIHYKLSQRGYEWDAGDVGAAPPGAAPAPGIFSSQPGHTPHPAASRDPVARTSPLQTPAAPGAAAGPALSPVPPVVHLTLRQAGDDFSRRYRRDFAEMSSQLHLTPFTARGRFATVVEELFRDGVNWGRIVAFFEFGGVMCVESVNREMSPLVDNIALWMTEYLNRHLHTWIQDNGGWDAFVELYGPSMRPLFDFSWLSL
Sequence of Bcl-xL (Homo sapiens, UniProt Q07817) (Q07817 1-209 limits assumed): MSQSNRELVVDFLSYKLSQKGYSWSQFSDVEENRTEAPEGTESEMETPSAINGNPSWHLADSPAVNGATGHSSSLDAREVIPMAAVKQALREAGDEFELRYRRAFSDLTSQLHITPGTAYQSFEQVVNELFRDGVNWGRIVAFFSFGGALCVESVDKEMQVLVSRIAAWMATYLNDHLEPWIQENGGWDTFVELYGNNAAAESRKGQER

## CC[C@H](C)[C@H](NC(=O)[C@H](CCCNC(=N)N)NC(=O)[C@H](CCCNC(=N)N)NC(=O)[C@H](CC(C)C)NC(=O)[C@H](CCC(=O)O)NC(=O)[C@H](CCC(N)=O)NC(=O)[C@@H](NC(=O)[C@@H](NC(=O)[C@H](Cc1c[nH]c2ccccc12)NC(=O)[C@@H](NC(=O)[C@H](CCC(=O)O)NC(=O)[C@@H]1CCCN1C(=O)[C@@H](N)CCCNC(=N)N)[C@@H](C)CC)[C@@H](C)CC)[C@@H](C)O)C(=O)NCC(=O)N[C@@H](CC(=O)O)C(=O)N[C@@H](CCC(=O)O)C(=O)N[C@@H](Cc1ccccc1)C(=O)N[C@@H](CC(N)=O)C(=O)N[C@@H](C)C(=O)N[C@@H](Cc1ccc(O)cc1)C(=O)N[C@@H](Cc1ccc(O)cc1)C(=O)N[C@@H](C)C(=O)N[C@@H](CCCNC(=N)N)C(N)=O [Bim_A2eT]
Mcl-1 [1]
  Kd: < 1 nM

## CC[C@H](C)[C@H](NC(=O)[C@H](CCCNC(=N)N)NC(=O)[C@H](CCCNC(=N)N)NC(=O)[C@H](CC(C)C)NC(=O)[C@H](CCC(=O)O)NC(=O)[C@H](CCC(N)=O)NC(=O)[C@@H](NC(=O)[C@@H](NC(=O)[C@H](Cc1c[nH]c2ccccc12)NC(=O)[C@@H](NC(=O)[C@H](CCC(=O)O)NC(=O)[C@@H]1CCCN1C(=O)[C@@H](N)CCCNC(=N)N)[C@@H](C)CC)[C@@H](C)CC)[C@@H](C)O)C(=O)NCC(=O)N[C@@H](CC(=O)O)C(=O)N[C@@H](CCC(=O)O)C(=O)N[C@H](C(=O)N[C@@H](CC(N)=O)C(=O)N[C@@H](C)C(=O)N[C@@H](Cc1ccc(O)cc1)C(=O)N[C@@H](Cc1ccc(O)cc1)C(=O)N[C@@H](C)C(=O)N[C@@H](CCCNC(=N)N)C(N)=O)[C@@H](C)CC [Bim_A2eT_F4aI]
Bcl-2 [2]
  Kd: 150 ± 43 nM
Mcl-1 [1]
  Kd: < 1 nM
Bcl-xL [3]
  Kd: 110 ± 62 nM
Bfl-1 [4]
  Kd: 7.9 ± 2.1 nM
Bcl-w [5]
  Kd: 16 ± 4.1 nM

## CC[C@H](C)[C@H](NC(=O)[C@H](CCCNC(=N)N)NC(=O)[C@H](CCCNC(=N)N)NC(=O)[C@H](CC(C)C)NC(=O)[C@H](CCC(=O)O)NC(=O)[C@H](CCC(N)=O)NC(=O)[C@@H](NC(=O)[C@H](CCSC)NC(=O)[C@H](Cc1c[nH]c2ccccc12)NC(=O)[C@@H](NC(=O)[C@H](CCC(=O)O)NC(=O)[C@@H]1CCCN1C(=O)[C@@H](N)CCCNC(=N)N)[C@@H](C)CC)[C@@H](C)O)C(=O)NCC(=O)N[C@@H](CC(=O)O)C(=O)N[C@@H](CCC(=O)O)C(=O)N[C@@H](Cc1ccccc1)C(=O)N[C@@H](CC(N)=O)C(=O)N[C@@H](C)C(=O)N[C@@H](Cc1ccc(O)cc1)C(=O)N[C@@H](Cc1ccc(O)cc1)C(=O)N[C@@H](C)C(=O)N[C@@H](CCCNC(=N)N)C(N)=O [Bim_A2eT_I2dM]
Mcl-1 [1]
  Kd: < 1 nM

## CC[C@H](C)[C@H](NC(=O)[C@H](CCC(=O)O)NC(=O)[C@@H]1CCCN1C(=O)[C@@H](N)CCCNC(=N)N)C(=O)N[C@@H](Cc1c[nH]c2ccccc12)C(=O)N[C@H](C(=O)N[C@H](C(=O)N[C@@H](CCC(N)=O)C(=O)N[C@@H](CCC(=O)O)C(=O)N[C@@H](CC(C)C)C(=O)N[C@@H](CCCNC(=N)N)C(=O)N[C@@H](CCCNC(=N)N)C(=O)N[C@@H](CC(C)C)C(=O)NCC(=O)N[C@@H](CC(=O)O)C(=O)N[C@@H](CCC(=O)O)C(=O)N[C@@H](Cc1ccccc1)C(=O)N[C@@H](CC(N)=O)C(=O)N[C@@H](C)C(=O)N[C@@H](Cc1ccc(O)cc1)C(=O)N[C@@H](Cc1ccc(O)cc1)C(=O)N[C@@H](C)C(=O)N[C@@H](CCCNC(=N)N)C(N)=O)[C@@H](C)O)[C@@H](C)CC [Bim_A2eT_I3dL]
Mcl-1 [1]
  Kd: < 1 nM

## CC[C@H](C)[C@H](NC(=O)[C@H](CCC(=O)O)NC(=O)[C@H](CC(=O)O)NC(=O)CNC(=O)[C@H](CC(C)C)NC(=O)[C@H](CCCNC(=N)N)NC(=O)[C@H](CCCNC(=N)N)NC(=O)[C@H](CC(C)C)NC(=O)CNC(=O)[C@H](CCC(N)=O)NC(=O)[C@@H](NC(=O)[C@H](CCSC)NC(=O)[C@H](Cc1c[nH]c2ccccc12)NC(=O)[C@@H](NC(=O)[C@H](CCC(=O)O)NC(=O)[C@@H]1CCCN1C(=O)[C@H](CCCNC(=N)N)NC(C)=O)[C@@H](C)CC)[C@@H](C)O)C(=O)N[C@@H](CC(N)=O)C(=O)N[C@@H](C)C(=O)N[C@@H](Cc1ccc(O)cc1)C(=O)N[C@@H](Cc1ccc(O)cc1)C(=O)N[C@@H](C)C(=O)N[C@@H](CCCNC(=N)N)C(N)=O [MS1]
KSBcl-2
  Kd: 2.9 ± 0.68 nM
Mcl-1 [6]
  specificity for Mcl-1 over Bcl-xL, Bcl-2, Bcl-w and Bfl-1: ≥ 40 fold

## CC[C@H](C)[C@H](NC(=O)[C@H](CCC(=O)O)NC(=O)[C@H](CC(=O)O)NC(=O)CNC(=O)[C@H](CC(C)C)NC(=O)[C@H](CCCNC(=N)N)NC(=O)[C@H](CCC(N)=O)NC(=O)[C@H](CC(C)C)NC(=O)[C@H](CO)NC(=O)[C@H](CCC(N)=O)NC(=O)[C@@H](NC(=O)[C@H](CC(C)C)NC(=O)[C@H](Cc1c[nH]c2ccccc12)NC(=O)[C@@H](NC(=O)[C@H](CCC(=O)O)NC(=O)[C@@H]1CCCN1C(=O)[C@H](CCCNC(=N)N)NC(C)=O)[C@@H](C)CC)[C@@H](C)O)C(=O)N[C@@H](CC(N)=O)C(=O)N[C@@H](C)C(=O)N[C@@H](Cc1ccc(O)cc1)C(=O)N[C@@H](Cc1ccc(O)cc1)C(=O)N[C@@H](C)C(=O)N[C@@H](CCCNC(=N)N)C(N)=O [MS2]
KSBcl-2
  Kd: < 1 nM

## CC[C@H](C)[C@H](NC(=O)[C@H](CCC(=O)O)NC(=O)[C@H](CC(=O)O)NC(=O)CNC(=O)[C@H](CC(C)C)NC(=O)[C@H](CCCNC(=N)N)NC(=O)[C@H](CCC(N)=O)NC(=O)[C@H](CC(C)C)NC(=O)[C@H](Cc1c[nH]cn1)NC(=O)[C@H](CCC(N)=O)NC(=O)[C@@H](NC(=O)[C@H](CC(C)C)NC(=O)[C@H](Cc1c[nH]c2ccccc12)NC(=O)[C@@H](NC(=O)[C@H](CCC(=O)O)NC(=O)[C@@H]1CCCN1C(=O)[C@@H](N)CCCNC(=N)N)[C@@H](C)CC)[C@@H](C)O)C(=O)N[C@@H](CC(N)=O)C(=O)N[C@@H](C)C(=O)N[C@@H](Cc1ccc(O)cc1)C(=O)N[C@@H](Cc1ccc(O)cc1)C(=O)N[C@@H](C)C(=O)N[C@@H](CCCNC(=N)N)C(N)=O [MS3]
Bcl-2 [2]
  Kd: > 3000 nM
Mcl-1 [1]
  Kd: 2 ± 1.2 nM

## CC[C@H](C)[C@H](NC(=O)[C@H](CCCCN)NC(=O)[C@H](CCCNC(=N)N)NC(=O)[C@H](CC(C)C)NC(=O)[C@H](CCC(N)=O)NC(=O)[C@H](C)NC(=O)[C@H](C)NC(=O)[C@H](Cc1ccccc1)NC(=O)[C@H](CCC(=O)O)NC(=O)[C@@H]1CCCN1C(=O)[C@@H]1CCCN1C(=O)[C@H](CC(C)C)NC(=O)[C@H](CCC(=O)O)NC(=O)[C@H](C)NC(C)=O)C(=O)NCC(=O)N[C@@H](CC(=O)O)C(=O)N[C@@H](CCCCN)C(=O)N[C@H](C(=O)N[C@@H](Cc1ccc(O)cc1)C(=O)N[C@@H](CS)C(N)=O)C(C)C [NoxaA]
Bcl-2 [7]
  no binding to Bcl-2 up to: > 2500 nM
Bfl-1 [8]
  no binding to Bfl-1 up to: > 2500 nM
Bcl-w [9]
  no binding to Bcl-w up to: > 2500 nM
Bcl-xL [10]
  no binding to Bcl-xL up to: > 2500 nM
